Experimental data taken from patent publication US8993760B2, “Rock inhibitors and uses thereof” (University of South Florida, priority 2006, dated 2015).
Read-outs that look alike come from different tables or passages of the source.

Molecular target: Rho-kinase (ROCK1) (Homo sapiens, UniProt Q13464)
Assay: Rho-kinase (ROCK1) inhibition
Type: biochemical
Settings: for Inhibition / % Inhibition: concentration not given
[1] = Table 3, first number of the cell
[2] = Table 2, first number of the cell
[3] = Table 1, first number of the cell
[4] = read-out: IC50, inhibitory activity against Rho-kinase activity

Rho-kinase (ROCK1), sequence (Q13464 whole entry, species assumed): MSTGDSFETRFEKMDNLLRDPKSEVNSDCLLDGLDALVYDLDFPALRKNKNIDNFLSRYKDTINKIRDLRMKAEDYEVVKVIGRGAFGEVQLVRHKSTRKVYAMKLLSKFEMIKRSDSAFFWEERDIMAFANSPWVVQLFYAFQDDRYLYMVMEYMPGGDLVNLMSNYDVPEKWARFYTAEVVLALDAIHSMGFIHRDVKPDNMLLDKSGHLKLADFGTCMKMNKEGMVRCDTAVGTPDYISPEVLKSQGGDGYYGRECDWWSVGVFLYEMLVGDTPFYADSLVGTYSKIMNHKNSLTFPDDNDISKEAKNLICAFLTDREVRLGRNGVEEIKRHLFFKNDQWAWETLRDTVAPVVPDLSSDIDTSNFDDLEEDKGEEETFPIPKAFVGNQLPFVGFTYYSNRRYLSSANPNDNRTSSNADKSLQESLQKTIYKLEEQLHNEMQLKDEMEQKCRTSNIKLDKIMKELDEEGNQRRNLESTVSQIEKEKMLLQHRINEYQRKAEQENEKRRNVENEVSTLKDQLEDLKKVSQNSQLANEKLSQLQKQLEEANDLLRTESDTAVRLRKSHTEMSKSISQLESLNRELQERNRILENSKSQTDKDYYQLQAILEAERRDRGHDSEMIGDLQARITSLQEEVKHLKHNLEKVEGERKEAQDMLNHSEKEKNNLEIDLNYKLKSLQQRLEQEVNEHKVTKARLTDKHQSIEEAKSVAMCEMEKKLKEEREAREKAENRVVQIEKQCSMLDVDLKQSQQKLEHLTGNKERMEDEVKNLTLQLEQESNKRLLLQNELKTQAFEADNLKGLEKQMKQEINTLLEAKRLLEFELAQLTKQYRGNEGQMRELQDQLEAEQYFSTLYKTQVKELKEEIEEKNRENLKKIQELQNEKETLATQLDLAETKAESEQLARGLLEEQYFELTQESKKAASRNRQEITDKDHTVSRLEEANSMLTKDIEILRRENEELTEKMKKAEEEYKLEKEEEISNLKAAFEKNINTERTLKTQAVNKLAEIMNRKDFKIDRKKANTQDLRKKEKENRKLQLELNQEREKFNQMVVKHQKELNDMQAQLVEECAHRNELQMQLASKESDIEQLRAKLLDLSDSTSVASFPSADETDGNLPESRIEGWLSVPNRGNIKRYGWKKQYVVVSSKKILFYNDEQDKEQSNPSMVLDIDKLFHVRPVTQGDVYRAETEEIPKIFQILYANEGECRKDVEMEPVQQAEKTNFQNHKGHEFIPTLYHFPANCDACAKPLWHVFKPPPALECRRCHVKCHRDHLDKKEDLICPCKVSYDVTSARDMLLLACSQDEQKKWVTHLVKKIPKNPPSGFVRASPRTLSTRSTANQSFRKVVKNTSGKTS

## O=C(c1cccc2cnccc12)N1CCN[C@@H](Cc2ccccc2)C1 [IP-IV-15]
[1]
  Inhibition: 70

## O=C(Nc1cccc2cnccc12)OC1CCN(Cc2ccccc2)CC1 [IP-IV-115]
Table 5
  % Inhibition: 50%

## CC(C)[C@H]1CN(C(=O)c2cccc3cnccc23)CCN1 [IP-IV-103]
[1]
  Inhibition: 81

## O=C(Nc1ccncc1)N1CCCN(Cc2ccccc2)CC1 [Compound 9]
Table 4
  Inhibition (@ 100 μM): 21.0 (@ 100 μM)

## CSCC[C@@H]1NC(=O)CN(Cc2cccc3ccccc23)C1=O [Compound 5b]
Table 2
  % Inhibition (@ 100 μM): −1.48%
[2]
  % Inhibition: 93%

## c1ccc(C[C@H]2CN(c3ccnc4ccccc34)CCN2)cc1 [IP-IV-47]
[3]
  % Inhibition: 43%

## O=C(Nc1cccc2cnccc12)N1CCCN(Cc2ccccc2)CC1 [IP-IV-105]
Table 5
  % Inhibition (@ 100 μM): −0.85 (@ 100 μM) %

## O=C(Nc1ccncc1)N1CCN[C@@H](Cc2ccccc2)C1 [Compound 12b]
  inhibitory activity / disruption of Rho-kinase activity (in words): potent disrupters of active Rho-kinase
[4]
  IC50: 14 µM

## O=C(Nc1ccncc1)N1CCCNCC1 [Compound 10]
Table 4
  Inhibition (@ 100 μM): 16.7 (@ 100 μM)

## OC[C@H]1CN(Cc2ccncc2)CCN1 [Compound 2d]
Table 2
  % Inhibition (@ 100 μM): 3.73%
[2]
  % Inhibition: 20%

## CC(C)[C@H]1CN(C(=O)c2cccc3cnccc23)CCN1C(=O)OC(C)(C)C [IP-IV-89]
[1]
  Inhibition: 82

## CSCC[C@@H]1NC(=O)CN(Cc2ccncc2)C1=O [Compound 1b]
Table 2
  % Inhibition (@ 100 μM): 1.96%
[2]
  % Inhibition: 25%

## Cl.O=C(O)C1CCN(C(=O)Nc2ccncc2)CC1 [Compound 8]
Table 4
  Inhibition (@ 100 μM): 1.59 (@ 100 μM)

## O=C(CN1CCCNCC1)Nc1ccncc1 [IP-IV-81]
Table 5
  % Inhibition (@ 100 μM): 30.61 (@ 100 μM) %

## O=C(Nc1ccncc1)N1CCN[C@@H](COCc2ccccc2)C1 [Compound 12a]
Table 4
  Inhibition (@ 100 μM): 9.58

## O=C(c1cccc2ncccc12)N1CCNC(Cc2ccccc2)C1 (stereo not drawn) [IP-IV-109 R = O]
Table 3
  Inhibition (@ 100 μM): 1.55 (@ 100 μM)

## c1ccc(C[C@H]2CN(Cc3cccc4ncccc34)CCN2)cc1 [IP-IV-109 R = H2]
Table 3, read-out: IC50
  IC50: 67 µM

## CC(C)(C)OC(=O)N1CCN(c2cccc3cnccc23)C[C@@H]1COCc1ccccc1 [IP-IV-43]
Table 1
  % Inhibition (@ 100 μM): 4.73%
[3]
  % Inhibition: 49%

## CSCC[C@H]1CN(Cc2ccncc2)CCN1 [Compound 2b]
Table 2
  % Inhibition (@ 100 μM): 4.35%
[2]
  % Inhibition: 36%

## CC(C)(C)OC(=O)N1CCN(c2ccnc3ccccc23)C[C@@H]1Cc1ccccc1 [IP-IV-33]
[3]
  % Inhibition: 47%

## CC(C)[C@H]1CN(Cc2cccc3cnccc23)CCN1 [IP-IV-107]
[1]
  Inhibition: 29
Table 3, read-out: IC50
  IC50: 22 µM

## O=C(Nc1cccc2cnccc12)NC1CCCCCC1 [IP-IV-129]
Table 5
  % Inhibition: 50%

## CCOC(=O)C1CCN(CC(=O)Nc2ccncc2)CC1 [IP-IV-39]
Table 5
  % Inhibition (@ 100 μM): −1.46 (@ 100 μM) %

## CSCC[C@H]1CN(Cc2ccccc2)CCN1 [Compound 4b]
Table 2
  % Inhibition (@ 100 μM): 0.53%
[2]
  % Inhibition: 60%

## CSCC[C@@H]1NC(=O)CN(Cc2ccccc2)C1=O [Compound 3b]
[2]
  % Inhibition: 78%

## CC(C)(C)OC(=O)N1CCN(c2ccnc3ccccc23)C[C@@H]1COCc1ccccc1 [IP-IV-35]
[3]
  % Inhibition: 54%

## CC(C)(C)OC(=O)N1CCN(c2cccc3cnccc23)C[C@@H]1Cc1ccccc1 [IP-IV-41]
  inhibitory activity / disruption of Rho-kinase activity (in words): potent disrupters of active Rho-kinase
Table 1
  % Inhibition (@ 100 μM): 9.71%
[3]
  % Inhibition: 83%

## O=C(Nc1ccncc1)NC1CCNCC1 [Compound 15a]
Table 4, read-out: IC50
  IC50: 55 µM

## c1ccc(C[C@H]2CN(Cc3cccc4cnccc34)CCN2)cc1 [IP-IV-29]
[1]
  Inhibition: 16 IC50 = 16 μM
Table 3, read-out: IC50
  IC50: 16 µM

## O=C(Nc1ccncc1)NC1CCN(Cc2ccccc2)CC1 [Compound 14a]
Table 4, read-out: IC50
  IC50: 90 µM

## O=C1CN(Cc2ccncc2)C(=O)[C@H](Cc2ccccc2)N1 [Compound 1e]
[2]
  % Inhibition: ~20%

## O=C1CN(Cc2cccc3ccccc23)C(=O)[C@H](Cc2ccccc2)N1 [Compound 5e]
Table 2
  % Inhibition (@ 100 μM): −1.87%
[2]
  % Inhibition: 71%

## O=C1CN(Cc2ccccc2)C(=O)[C@H](Cc2ccccc2)N1 [Compound 3e]
Table 2
  % Inhibition (@ 100 μM): 0.75%
[2]
  % Inhibition: 61%

## O=C1CN(Cc2ccncc2)C(=O)[C@H](CO)N1 [Compound 1d]
Table 2
  % Inhibition (@ 100 μM): 1.73%
[2]
  % Inhibition: 45%

## c1ccc([C@H]2CN(c3cccc4cnccc34)CCN2)cc1 [IP-IV-67]
[3]
  % Inhibition: 67%
Table 1, read-out: IC50
  IC50: 3.5 µM

## c1ccc(COC[C@H]2CN(c3ccnc4ccccc34)CCN2)cc1 [IP-IV-49]
  inhibitory activity / disruption of Rho-kinase activity (in words): potent disrupters of active Rho-kinase
[3]
  % Inhibition: 85%

## c1ccc(C[C@H]2CN(Cc3cccc4ccccc34)CCN2)cc1 [Compound 6e, N-Naphtylmethyl-3-benzyl piperazine]
  inhibitory activity / disruption of Rho-kinase activity (in words): particular effectiveness
Table 2
  % Inhibition (@ 100 μM): 20.4%
[2]
  % Inhibition: 75%

## CSCC[C@H]1CN(Cc2cccc3ccccc23)CCN1 [Compound 6b]
Table 2
  % Inhibition (@ 100 μM): 11.9%
[2]
  % Inhibition: 62%

## O=C(CN1CCCN(Cc2ccccc2)CC1)Nc1ccncc1 [IP-IV-73]
Table 5
  % Inhibition (@ 100 μM): 13.31 (@ 100 μM) %

## CCOC(=O)C1CCN(C(=O)Nc2ccncc2)CC1 [Compound 7]
Table 4
  Inhibition (@ 100 μM): 6.29 (@ 100 μM)

## O=C(Nc1ccncc1)OC1CCNCC1 [Compound 16b]
  inhibitory activity / disruption of Rho-kinase activity (in words): potent disrupters of active Rho-kinase
[4]
  IC50: 7.5 µM

## CC(C)(C)OC(=O)N1CCN(C(=O)c2cccc3cnccc23)C[C@@H]1Cc1ccccc1 [IP-III-153]
[1]
  Inhibition: 91

## O=C(Nc1ccncc1)OC1CCN(Cc2ccccc2)CC1 [Compound 14b]
Table 4, read-out: IC50
  IC50: 56 µM
